Paper PMC3667390 (Cancer immunology, immunotherapy : CII, 2009)

Test system: peptide-specific CD4 T cells
Type: cell-based, human
Details: ELIspot and proliferation; peptide 10 μg/ml, CEA protein 1 μg/ml, 20-24 hours; day 15 of in vitro stimulation; three replicates

Sequence: MELLLVNKLKWNLAA [Peptide C140]
- reactivity of peptide-specific CD4 T cells: did not respond
